Test results: US10258701B2, “Labeled evans blue dye derivative for in vivo serum albumin labeling” (The United States of America, as represented by the …, priority 2015, dated 2019)
Several values for one entry are separate records, joined by “and”; a condition that tells them apart may be missing. Equal values may be shown once.

Biological target: albumin (Homo sapiens, UniProt P02768)
Test: Saturation binding assay of NEB with albumin (bound/unbound separated by agarose gel electrophoresis)
Details: unbound NEB quantified, read-out: dissociation constant (Kd) of NEB to albumin
Excerpt: In a particular embodiment, the compound of formula (I) (also referred to herein as “NEB”) wherein n is 0 can be synthesized in two steps starting from o-tolidine as shown in Scheme 1. 1, 4, 7-triazacyclononane-N,N,N″-triacetic acid-3HCl (“NOTA”) was first coupled to o-tolidine using diethyl cyanophosphonate to give NOTA-o-tolidine in 26% yield after preparative reversed-phase HPLC. NOTA-o-tolidine was then coupled to 1-amino-8-naphthol-2,4-disulfonic acid to give NEB through the formation of diazonium salt with a yield of 46.6%. The purity of the product was >98% based on HPLC analysis and the identity of the product was confirmed by LC-MS. This truncated version of Evans blue retained the binding ability with albumin since stable NEB/albumin complex was confirmed by LC/MS. The complex formation was also confirmed by saturation binding assay. The bound NEB could be separated from the unbound NEB using agarose gel electrophoresis. […] The ^18F-AlF complex of NEB is also referred to herein as ^18F-AlF-NEB. The ^64CU complex of NEB is also referred to herein as ^64Cu-NEB.

albumin, sequence (P02768 25-609, species assumed): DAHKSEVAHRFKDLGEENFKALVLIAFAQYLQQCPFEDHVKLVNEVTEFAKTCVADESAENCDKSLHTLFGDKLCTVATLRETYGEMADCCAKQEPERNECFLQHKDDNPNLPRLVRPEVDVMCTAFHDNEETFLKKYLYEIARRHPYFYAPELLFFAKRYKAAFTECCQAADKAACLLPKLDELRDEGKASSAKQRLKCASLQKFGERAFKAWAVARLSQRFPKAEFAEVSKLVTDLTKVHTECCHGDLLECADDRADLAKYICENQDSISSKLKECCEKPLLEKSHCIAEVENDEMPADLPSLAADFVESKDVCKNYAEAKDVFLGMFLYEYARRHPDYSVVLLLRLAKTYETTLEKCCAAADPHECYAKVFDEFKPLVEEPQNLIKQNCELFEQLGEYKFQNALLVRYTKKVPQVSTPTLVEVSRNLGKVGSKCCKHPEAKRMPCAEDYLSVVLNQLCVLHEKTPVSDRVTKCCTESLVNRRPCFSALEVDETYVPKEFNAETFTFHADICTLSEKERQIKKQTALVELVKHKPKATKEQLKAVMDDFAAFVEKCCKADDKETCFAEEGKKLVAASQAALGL

Kd: 48.9 µM and ~50 µM
Structure (SMILES): Cc1cc(-c2ccc(NC(=O)CN3CCN(CC(=O)O)CCN(CC(=O)O)CC3)c(C)c2)ccc1N=Nc1ccc2c(S(=O)(=O)O)cc(S(=O)(=O)O)c(N)c2c1O [NEB]
